Like-named read-outs stand apart in the source and are kept apart here.
Tested on: mice
Test: Neuropharmacological Assay (SmartCube)
Assay type: in vivo
Conditions: for AD: ADHD (SmartCube probability) / AG: analgesic (SmartCube probability) / AX: anxiolytic (SmartCube probability) / CE: cognitive enhancer (SmartCube probability) / DP: anti-depressant (SmartCube probability) / MS: mood stabilizer (SmartCube probability) / PS: anti-psychotic (SmartCube probability) / SD: sedative hypnotic (SmartCube probability) / UN: uncharacterized CNS activity (SmartCube probability): mice, i.p. 15 min before test, most efficacious dose(s) of 3 doses; for minimal effective dose: Mus musculus, read-out: POTENCY (minimal effective dose, MED)
How it was run: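 Behavior of treated mice captured by digital video and matched algorithmically against reference drug classes, yielding a class probability at the most efficacious of 3 i.p. doses (15 min pretreatment, NMP/PEG/propylene glycol vehicle). Potency given as MED, the mpk dose reaching ≥50% total activity across usually 0.3–30 mpk.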

[1] = MED = dose having 50% or more total activity in SmartCube

| Structure (SMILES) | POTENCY (minimal effective dose, MED) [1] | AD: ADHD (SmartCube probability) | AG: analgesic (SmartCube probability) | AX: anxiolytic (SmartCube probability) | CE: cognitive enhancer (SmartCube probability) | DP: anti-depressant (SmartCube probability) | MS: mood stabilizer (SmartCube probability) | PS: anti-psychotic (SmartCube probability) | SD: sedative hypnotic (SmartCube probability) | UN: uncharacterized CNS activity (SmartCube probability) | minimal effective dose | minimal effective dose [1] |
| --- | --- | --- | --- | --- | --- | --- | --- | --- | --- | --- | --- | --- |
| CNC[C@@H]1OCCc2ccc(Cl)cc21 [Example 65, (R)-1-(7-chloroisochroman-1-yl)-N-methylmethanamine] | A-B | + (LOQ≤ + <5%) | ++ (5%≤ ++ <25%) | ++ (5%≤ ++ <25%) | + (LOQ≤ + <5%) | ++ (5%≤ ++ <25%) | + (LOQ≤ + <5%) | ++ (5%≤ ++ <25%) | ++ (5%≤ ++ <25%) | ++++ (50%≤ ++++) |  |  |
| CNC[C@H]1OCCc2ccc3c(c21)OCO3 [Example 1, (S)-1-(6,9-dihydro-7H-[1,3]dioxolo[4,5-h]isochromen-9-yl)-N-methylmethanamine] |  | + (LOQ≤ + <5%) | + (LOQ≤ + <5%) | ++ (5%≤ ++ <25%) | + (LOQ≤ + <5%) | ++++ (50%≤ ++++) | + (LOQ≤ + <5%) | ++ (5%≤ ++ <25%) | ++ (5%≤ ++ <25%) | + (LOQ≤ + <5%) | < 3 mg/kg |  |
| CNC[C@H]1OCCc2c1cccc2C(F)(F)F [Example 78, (S)-N-methyl-1-(5-(trifluoromethyl)isochroman-1-yl)-methanamine] |  | + (LOQ≤ + <5%) | ++ (5%≤ ++ <25%) | ++ (5%≤ ++ <25%) | + (LOQ≤ + <5%) | ++ (5%≤ ++ <25%) | + (LOQ≤ + <5%) | + (LOQ≤ + <5%) | + (LOQ≤ + <5%) | ++++ (50%≤ ++++) |  | 10 to 30 mg/kg |
| CN(C)C[C@H]1OCCc2cccc(F)c21 [Example 84, (S)-1-(8-fluoroisochroman-1-yl)-N,N-dimethylmethanamine] |  | + (LOQ≤ + <5%) | ++ (5%≤ ++ <25%) | ++ (5%≤ ++ <25%) | ++ (5%≤ ++ <25%) | ++ (5%≤ ++ <25%) | + (LOQ≤ + <5%) | ++ (5%≤ ++ <25%) | ++ (5%≤ ++ <25%) | ++++ (50%≤ ++++) |  | < 3 mg/kg |
| CNC[C@H]1OCCc2cccc(F)c21 [Example 25, (S)-1-(8-fluoroisochroman-1-yl)-N-methylmethanamine] |  | + (LOQ≤ + <5%) | ++ (5%≤ ++ <25%) | + (LOQ≤ + <5%) | ++ (5%≤ ++ <25%) | +++ (25%≤ +++ <50%) | + (LOQ≤ + <5%) | ++ (5%≤ ++ <25%) | ++ (5%≤ ++ <25%) | + (LOQ≤ + <5%) |  | 3 to 10 mg/kg |
| CNC[C@H]1OCCc2ccc(Cl)cc21 [Example 64, (S)-1-(7-chloroisochroman-1-yl)-N-methylmethanamine] | A-B | + (LOQ≤ + <5%) | ++ (5%≤ ++ <25%) | +++ (25%≤ +++ <50%) | ++ (5%≤ ++ <25%) | + (LOQ≤ + <5%) | + (LOQ≤ + <5%) | ++ (5%≤ ++ <25%) | ++ (5%≤ ++ <25%) | ++++ (50%≤ ++++) |  |  |

— US10196403B2, “Compounds and compositions and uses thereof” (Sunovion Pharmaceuticals Inc., priority 2016, dated 2019)
